Data on 20 compounds can be found in patent US8633206B2, “Pyrrolo[2,3-D]pyrimidine compounds” (Pfizer Inc., priority 2009, dated 2014).

Common to all, as to type: biochemical
One assay concerns the target JAK2 (Homo sapiens (Human), UniProt O60674). In words: JAK enzymatic assay (peptide mobility shift), JAK2. As to conditions: recombinant JAK2 2 nM, JAKtide peptide, 150 minutes. From the text:
Recombinant JAK1 (Catalog Number PV4775), JAK2 (Catalog Number PV4210) and JAK3 (Catalog Number PV3855) were purchased from (Invitrogen Corporation, Madison, Wis.). Tyk2 (His-Tyk2 (888-1182, C936S, C1142S)) used in this study was expressed and purified at Pfizer Laboratories. Adenosine 5′-triphosphate (ATP) was obtained from (Sigma Chemical Company, St. Louis, Mo.). […] Coating Reagent 3 was purchased from (Caliper Life Sciences, Hopkinton, Mass.).
A peptide mobility shift assay was used to quantify the phosphorylation of the JAKtide (JAK2 and JAK3) or the IRS-1 peptide (JAK1 and Tyk2). Reactions were carried out in a 384-well plate (Matrical MP-101) in a 10 L total volume. […] Compounds were diluted serially in 100% dimethyl sulfoxide and tested in an 11 point dose response in duplicate or quadruplicate (200 nl of compound/DMSO was added per 10 L reaction). The reactions were initiated by the addition of enzyme to the final concentration of 2 nM JAK2, 1 nM JAK3, 12 nM Tyk2 or 20 nM JAK1. The assay was run for 240 minutes for JAK1, 150 minutes for JAK2, 90 minutes for JAK3 and 70 minutes for Tyk2. The assays were stopped at the specified times with 20 uL of 140 mM HEPES, 22.5 mM EDTA and 0.15% Coating Reagent 3. The plates were placed on a LabChip 3000 (LC3000) instrument from (Caliper Life Sciences) to measure the formation of phosphorylated peptide. Data was analyzed using Hits Well Analyzer Software from (Caliper Life Sciences) to obtain the amount of product formed.
(§1) Data was then imported into an internal application where each data point is expressed as % inhibition based on uninhibited and no enzyme controls. Dose-response data is then fit using a 4 parameter logistic equation (Equation 1) to determine an IC50.

The next assay has as its target JAK1 (Homo sapiens (Human), UniProt P23458). In words: JAK enzymatic assay (peptide mobility shift), JAK1. As to conditions: recombinant JAK1 20 nM, IRS-1 peptide, 240 minutes. Here is the method:
(§2) Recombinant JAK1 (Catalog Number PV4775), JAK2 (Catalog Number PV4210) and JAK3 (Catalog Number PV3855) were purchased from (Invitrogen Corporation, Madison, Wis.). […] Adenosine 5′-triphosphate (ATP) was obtained from (Sigma Chemical Company, St. Louis, Mo.). […] Coating Reagent 3 was purchased from (Caliper Life Sciences, Hopkinton, Mass.).
(§3) Compounds were diluted serially in 100% dimethyl sulfoxide and tested in an 11 point dose response in duplicate or quadruplicate (200 nl of compound/DMSO was added per 10 L reaction). […] The assay was run for 240 minutes for JAK1, 150 minutes for JAK2, 90 minutes for JAK3 and 70 minutes for Tyk2. […] The plates were placed on a LabChip 3000 (LC3000) instrument from (Caliper Life Sciences) to measure the formation of phosphorylated peptide. Data was analyzed using Hits Well Analyzer Software from (Caliper Life Sciences) to obtain the amount of product formed.
as §1

For the next assay, the target named is JAK3 (Homo sapiens (Human), UniProt P52333). In words: JAK enzymatic assay (peptide mobility shift), JAK3. As to conditions: recombinant JAK3 1 nM, JAKtide peptide, 90 minutes. Here is the method:
as §2, §3, §1

Each structure is given as a SMILES string.

For orientation: IC50 means the concentration at which inhibition is half-maximal.

JAK2, sequence (O60674 808-1132): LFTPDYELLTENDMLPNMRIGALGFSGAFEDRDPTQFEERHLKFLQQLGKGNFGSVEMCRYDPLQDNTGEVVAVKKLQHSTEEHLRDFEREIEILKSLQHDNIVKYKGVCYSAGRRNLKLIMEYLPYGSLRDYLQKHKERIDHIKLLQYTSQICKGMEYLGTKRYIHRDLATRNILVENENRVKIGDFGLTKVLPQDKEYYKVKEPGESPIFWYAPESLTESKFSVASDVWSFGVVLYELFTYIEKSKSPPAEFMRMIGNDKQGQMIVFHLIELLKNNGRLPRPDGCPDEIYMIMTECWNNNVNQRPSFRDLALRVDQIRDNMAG
JAK3, sequence (P52333 781-1124): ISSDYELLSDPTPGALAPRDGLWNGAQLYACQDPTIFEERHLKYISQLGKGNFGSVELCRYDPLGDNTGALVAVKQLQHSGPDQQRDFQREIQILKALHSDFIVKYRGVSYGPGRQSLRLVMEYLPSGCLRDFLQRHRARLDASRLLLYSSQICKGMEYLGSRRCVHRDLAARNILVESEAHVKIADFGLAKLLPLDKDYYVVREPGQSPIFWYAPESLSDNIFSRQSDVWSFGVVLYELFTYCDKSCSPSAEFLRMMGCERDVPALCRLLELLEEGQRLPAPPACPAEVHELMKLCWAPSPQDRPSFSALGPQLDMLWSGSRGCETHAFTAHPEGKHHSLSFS
JAK1, sequence (P23458 whole entry): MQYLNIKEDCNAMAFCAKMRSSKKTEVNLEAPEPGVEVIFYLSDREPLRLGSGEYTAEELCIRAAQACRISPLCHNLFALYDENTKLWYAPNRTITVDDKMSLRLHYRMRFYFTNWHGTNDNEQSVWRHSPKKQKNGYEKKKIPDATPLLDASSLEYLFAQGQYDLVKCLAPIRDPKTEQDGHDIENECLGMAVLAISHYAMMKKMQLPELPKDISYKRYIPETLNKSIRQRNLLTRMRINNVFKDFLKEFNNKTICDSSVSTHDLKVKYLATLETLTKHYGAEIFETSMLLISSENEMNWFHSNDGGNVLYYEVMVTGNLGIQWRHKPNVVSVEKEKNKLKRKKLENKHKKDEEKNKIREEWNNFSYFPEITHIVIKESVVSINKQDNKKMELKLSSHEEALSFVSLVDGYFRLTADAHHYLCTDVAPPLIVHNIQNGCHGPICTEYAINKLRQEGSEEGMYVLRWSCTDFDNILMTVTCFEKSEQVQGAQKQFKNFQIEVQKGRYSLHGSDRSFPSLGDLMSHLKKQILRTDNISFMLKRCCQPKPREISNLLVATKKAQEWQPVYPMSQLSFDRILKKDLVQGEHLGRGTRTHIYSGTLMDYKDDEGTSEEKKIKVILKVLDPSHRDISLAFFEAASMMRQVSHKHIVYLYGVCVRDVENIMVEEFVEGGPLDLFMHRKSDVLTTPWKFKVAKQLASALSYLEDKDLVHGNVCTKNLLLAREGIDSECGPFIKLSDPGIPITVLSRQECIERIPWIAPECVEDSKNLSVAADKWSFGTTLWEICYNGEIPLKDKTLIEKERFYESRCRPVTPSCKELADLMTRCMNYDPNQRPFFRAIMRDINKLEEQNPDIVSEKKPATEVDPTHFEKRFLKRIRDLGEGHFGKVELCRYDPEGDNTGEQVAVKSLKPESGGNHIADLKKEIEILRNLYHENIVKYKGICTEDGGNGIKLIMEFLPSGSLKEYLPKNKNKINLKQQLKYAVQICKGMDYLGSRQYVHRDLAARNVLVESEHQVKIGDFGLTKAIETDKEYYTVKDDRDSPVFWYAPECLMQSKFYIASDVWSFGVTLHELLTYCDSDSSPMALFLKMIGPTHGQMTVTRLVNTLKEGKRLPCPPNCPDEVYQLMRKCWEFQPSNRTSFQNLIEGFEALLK

`CN(c1ncnc2[nH]ccc12)[C@H]1CC[C@H](CS(=O)(=O)N2CC[C@H](F)C2)CC1` [Example 70, N-[trans-4-({[(3S)-3-fluoropyrrolidin-1-yl]sulfonyl}methyl)cyclo-hexyl]-N-methyl-7H-pyrrolo[2,3-d]pyrimidin-4-amine]: the values for the IC50 at JAK2, on JAK1 and on JAK3 were 36.4 nM, 20.8 nM and 319 nM, respectively.

For `CN(c1ncnc2[nH]ccc12)[C@H]1CC[C@H](CS(=O)(=O)N2CC[C@H](CC#N)C2)CC1` [Example 32, {(3R)-1-[({trans-4-[methyl(7H-pyrrolo[2,3-d]pyrimidin-4-yl)amino]-cyclohexyl}methyl)sulfonyl]-pyrrolidin-3-yl}-acetonitrile], the IC50 at JAK2 came out at 27.3 nM; at JAK1, 3.76 nM; on JAK3, 355 nM.

On to `CN(c1ncnc2[nH]ccc12)[C@H]1CC[C@H](CS(=O)(=O)N2CCN(c3ncccc3C(=O)NC3CC3)CC2)CC1` [Example 121, N-cyclopropyl-2-{4-[({trans-4-[methyl(7H-pyrrolo[2,3-d]pyrimidin-4-yl)amino]-cyclohexyl}methyl)sulfonyl]piperazin-1yl}nicotinamide], for which the IC50 amounted to 43.1 nM on JAK2, 10.4 nM on JAK1 and 595 nM at JAK3.

Turning to `CCC1(NC(=O)OCc2ccccc2)CCCN(S(=O)(=O)C[C@H]2CC[C@H](N(C)c3ncnc4[nH]ccc34)CC2)C1` (stereo partly drawn) [Example 4, benzyl {3-ethyl-1-[({trans-4-[methyl(7H-pyrrolo[2,3-d]pyrimidin-4-yl)amino]cyclohexyl}methyl)-sulfonyl]piperidin-3-yl}carbamate], the IC50 at JAK2 was found to be 71.7 nM; on JAK1 it was 44.6 nM; on JAK3 it was 846 nM.

For the compound `CN(c1ncnc2[nH]ccc12)[C@H]1CC[C@H](CS(=O)(=O)N2CCS(=O)(=O)CC2)CC1` [Example 126, N-(trans-4-{[(1,1-dioxidothiomorpholin-4-yl)sulfonyl]methyl}cyclo-hexyl)-N-methyl-7H-pyrrolo[2,3-d]pyrimidin-4-amine], the IC50 at JAK1 is 19.4 nM; at JAK3, 587 nM.

Consider `CN(c1ncnc2[nH]ccc12)[C@H]1CC[C@H](CS(=O)(=O)N2CC(c3cccnc3)C2)CC1` [Example 111, N-methyl-N-(trans-4-{[(3-pyridin-3-ylazetidin-1-yl)sulfonyl]methyl}cyclo-hexyl)-7H-pyrrolo[2,3-d]pyrimidin-4-amine], for which the figures for the IC50 at JAK1 and at JAK3 were 22.7 nM and 346 nM, respectively.

On to `C[C@@H]1C[C@@H](CS(=O)(=O)N2CC[C@@H](CO)C2)CC[C@@H]1N(C)c1ncnc2[nH]ccc12` [Example 132, {(3R)-1-[({(1S,3R,4S)-3-methyl-4-[methyl(7H-pyrrolo[2,3-d]pyrimidin-4-yl)amino]cyclohexyl}methyl)-sulfonyl]pyrrolidin-3-yl}methanol], for which the results for the IC50 on JAK1 and on JAK3 were 6.5 nM and 51.2 nM, respectively.

For `CN(c1ncnc2[nH]ccc12)[C@H]1CC[C@H](CS(=O)(=O)N2CCCC(CN3CCCC3)C2)CC1` (stereo partly drawn) [Example 8, N-methyl-N-[trans-4-({[3-(pyrrolidin-1-ylmethyl)-piperidin-1-yl]sulfonyl}-methyl)cyclohexyl]-7H-pyrrolo[2,3-d]pyrimidin-4-amine], the IC50 on JAK1 was 14.8 nM; at JAK3, 3280 nM.

As to `CCOCCO[C@@H]1CCN(S(=O)(=O)C[C@H]2CC[C@H](N(C)c3ncnc4[nH]ccc34)CC2)C1` [Example 28, N-[trans-4-({[(3R)-3-(2-ethoxyethoxy)pyrrolidin-1-yl]sulfonyl}methyl)-cyclohexyl]-N-methyl-7H-pyrrolo[2,3-d]pyrimidin-4-amine], the figures for the IC50 at JAK2 and on JAK1 were 16.8 nM and 6.31 nM, respectively.

As to `C[C@@H]1C[C@@H](CS(=O)(=O)N2CCC(CO)CC2)CC[C@@H]1N(C)c1ncnc2[nH]ccc12` [Example 130, {1-[({(1S,3R,4S)-3-methyl-4-[methyl(7H-pyrrolo[2,3-d]pyrimidin-4-yl)amino]cyclohexyl}-methyl)sulfonyl]piperidin-4-yl}methanol], the IC50 on JAK1 came out at 7.41 nM; on JAK3, 42.9 nM.

Turning to `CN(c1ncnc2[nH]ccc12)[C@H]1CC[C@H](CS(=O)(=O)N2CCC(N)CC2)CC1` [Example 11, N-(trans-4-{[(4-amino-piperidin-1-yl)sulfonyl]-methyl}cyclohexyl)-N-methyl-7H-pyrrolo[2,3-d]-pyrimidin-4-amine], the IC50 at JAK1 came out at 42.3 nM; at JAK3, 2270 nM.

With `CC[C@H](O)C1CCN(S(=O)(=O)C[C@H]2CC[C@H](N(C)c3ncnc4[nH]ccc34)CC2)CC1` [Example 53, 1-{1-[({trans-4-[methyl(7H-pyrrolo[2,3-d]pyrimidin-4-yl)amino]cyclohexyl}-methyl)sulfonyl]piperidin-4-yl}propan-1-ol], the IC50 on JAK1 came out at 22.8 nM; at JAK3, 673 nM.

Consider `CN(c1ncnc2[nH]ccc12)[C@H]1CC[C@H](CS(=O)(=O)N2CCC(C)(O)C2)CC1` (stereo partly drawn) [Example 137, 3-methyl-1-[({trans-4-[methyl(7H-pyrrolo[2,3-d]pyrimidin-4-yl)amino]cyclohexyl}methyl)sulfonyl]pyrrolidin-3-ol], for which the IC50 on JAK1 stood at 0.00777 nM; on JAK3 it was 0.302 nM.

`C[C@H]1CCCN1S(=O)(=O)C[C@H]1CC[C@H](N(C)c2ncnc3[nH]ccc23)CC1` [Example 86, N-methyl-N-(trans-4-{[(2-methylpyrrolidin-1-yl)-sulfonyl]methyl}cyclohexyl)-7H-pyrrolo[2,3-d]-pyrimidin-4-amine]: the values for the half-inhibitory concentration (IC50) on JAK1 and on JAK3 were 6.47 nM and 457 nM, respectively.

Consider `CN(c1ncnc2[nH]ccc12)[C@H]1CC[C@H](CS(=O)(=O)N2CC(F)C2)CC1` [Example 112, N-(trans-4-{[(3-fluoroazetidin-1-yl)-sulfonyl]-methyl}-cyclohexyl)-N-methyl-7H-pyrrolo[2,3 d]pyrimidin-4-amine], for which the IC50 at JAK1 was found to be 12.5 nM; at JAK3, 143 nM.

Turning to `CN(c1ncnc2[nH]ccc12)[C@H]1CC[C@H](CS(=O)(=O)N2CCC[C@H]2CN2CCCC2)CC1` [Example 108, N-methyl-N-[trans-4-({[(2S)-2-(pyrrolidin-1-ylmethyl)pyrrolidin-1-yl]sulfonyl}methyl)cyclo-hexyl]-7H-pyrrolo[2,3-d]pyrimidin-4-amine], the results for the IC50 on JAK1 and on JAK3 were 4.73 nM and 813 nM, respectively.

Consider `CC1CC(CS(=O)(=O)N2CC[C@H](CO)C2)CCC1N(C)c1ncnc2[nH]ccc12` (stereo partly drawn) [Example 133, ((3S)-1-((3-methyl-4-(methyl(7H-pyrrolo[2,3-d]pyrimidin-4-yl)amino)cyclohexyl)methylsulfonyl)pyrrolidin-3-yl)methanol], for which the results for the half-maximal inhibitory concentration (IC50) on JAK1 and on JAK3 were 0.00508 nM and 0.0421 nM, respectively.

As to `CN(c1ncnc2[nH]ccc12)[C@H]1CC[C@H](CS(=O)(=O)N2CC[C@](C)(O)C2)CC1` [Example 99, 3-methyl-1-[({trans-4-[methyl(7H-pyrrolo[2,3-d]pyrimidin-4-yl)amino]cyclohexyl}methyl)-sulfonyl]pyrrolidin-3-ol], the IC50 came to 8.34 nM on JAK1 and 322 nM on JAK3.

Regarding `CN(c1ncnc2[nH]ccc12)[C@H]1CC[C@H](CS(=O)(=O)N2CCC[C@H](C(N)=O)C2)CC1` [Example 59, 1-[({trans-4-[methyl(7H-pyrrolo[2,3-d]pyrimidin-4-yl)amino]cyclohexyl}methyl)-sulfonyl]piperidine-3-carboxamide], the IC50 is 6.45 nM at JAK1 and 222 nM at JAK3.

In the case of `CN(c1ncnc2[nH]ccc12)[C@H]1CC[C@H](CS(=O)(=O)N2CCC(CS(=O)(=O)CC3CC3)CC2)CC1` [Example 49, N-(trans-4-{[(4-{[(cyclopropylmethyl)sulfonyl]-methyl}piperidin-1-yl)sulfonyl]-methyl}-cyclohexyl)-N-methyl-7H-pyrrolo[2,3-d]pyrimidin-4-amine], the half-maximal inhibitory concentration (IC50) on JAK1 came out at 11.7 nM; at JAK3 it was 491 nM.
